Reference: article PMC9133015 (Nature Communications, 2022)
Values joined by “and” are separate entries in the source; they are usually repeats but may differ in a detail not shown here. Equal values may be shown once. Read-outs that look alike come from different tables or passages of the source.

Columns and labels:
Assay in all cases: Kinase inhibitor specificity profiling (Reaction Biology Corporation)
Format in all cases: biochemical
Set-up in all cases: % Enzyme Activity (relative to DMSO controls): concentration or dose not given beside the values
[1] = biological target: T1, panel of 370 protein kinases (Homo sapiens, UniProt P22607); details: 2 h, kinase FGFR3; read-out: % Enzyme Activity (relative to DMSO controls)
T1 construct: purchased Reaction Biology Corporation (assay service)

[2] = biological target: T2, panel of 370 protein kinases (Homo sapiens, UniProt Q00526)
T2 construct: purchased Reaction Biology Corporation (assay service)

[3] = biological target: T3, panel of 370 protein kinases (Homo sapiens, UniProt Q00534); details: 2 h, read-out: % Enzyme Activity (relative to DMSO controls)
T3 construct: purchased Reaction Biology Corporation (assay service)

[4] = biological target: T4, panel of 370 protein kinases (Homo sapiens, UniProt Q9UL54); details: 2 h, kinase TAOK2/TAO1; read-out: % Enzyme Activity (relative to DMSO controls)
T4 construct: purchased Reaction Biology Corporation (assay service)

[5] = biological target: T5, panel of 370 protein kinases (Homo sapiens, UniProt O94806); details: 2 h, kinase PKCnu/PRKD3; read-out: % Enzyme Activity (relative to DMSO controls)
T5 construct: purchased Reaction Biology Corporation (assay service)

[6] = biological target: T6, panel of 370 protein kinases (Homo sapiens, UniProt P36896); details: 2 h, kinase ALK4/ACVR1B; read-out: % Enzyme Activity (relative to DMSO controls)
T6 construct: purchased Reaction Biology Corporation (assay service)

[7] = biological target: T7, panel of 370 protein kinases (Homo sapiens, UniProt Q86V86); details: 2 h, kinase PIM3; read-out: % Enzyme Activity (relative to DMSO controls)
T7 construct: purchased Reaction Biology Corporation (assay service)

[8] = biological target: T8, panel of 370 protein kinases (Homo sapiens, UniProt P05129); details: 2 h, kinase PKCg; read-out: % Enzyme Activity (relative to DMSO controls)
T8 construct: purchased Reaction Biology Corporation (assay service)

[9] = biological target: T9, panel of 370 protein kinases (Homo sapiens, UniProt P51955); details: 2 h, kinase NEK2; read-out: % Enzyme Activity (relative to DMSO controls)
T9 construct: purchased Reaction Biology Corporation (assay service)

[10] = biological target: T10, panel of 370 protein kinases (Homo sapiens, UniProt O95382); details: 2 h, kinase MEKK6; read-out: % Enzyme Activity (relative to DMSO controls)
T10 construct: purchased Reaction Biology Corporation (assay service)

[11] = biological target: T11, panel of 370 protein kinases (Homo sapiens, UniProt P17948); details: 2 h, kinase FLT1/VEGFR1; read-out: % Enzyme Activity (relative to DMSO controls)
T11 construct: purchased Reaction Biology Corporation (assay service)

[12] = biological target: T12, panel of 370 protein kinases (Homo sapiens, UniProt Q9Y5S2); details: 2 h, kinase MRCKb/CDC42BPB; read-out: % Enzyme Activity (relative to DMSO controls)
T12 construct: purchased Reaction Biology Corporation (assay service)

[13] = biological target: T13, panel of 370 protein kinases (Homo sapiens, UniProt Q15303); details: 2 h, kinase ERBB4/HER4; read-out: % Enzyme Activity (relative to DMSO controls)
T13 construct: purchased Reaction Biology Corporation (assay service)

[14] = biological target: T14, panel of 370 protein kinases (Homo sapiens, UniProt Q00536); details: 2 h, kinase CDK16/cyclin Y (PCTAIRE); read-out: % Enzyme Activity (relative to DMSO controls)
T14 construct: purchased Reaction Biology Corporation (assay service)

[15] = biological target: T15, panel of 370 protein kinases (Homo sapiens, UniProt P29597); details: kinase TYK2
T15 construct: purchased Reaction Biology Corporation (assay service)

[16] = biological target: T16, panel of 370 protein kinases (Homo sapiens, UniProt Q16832); details: 2 h, kinase DDR2; read-out: % Enzyme Activity (relative to DMSO controls)
T16 construct: purchased Reaction Biology Corporation (assay service)

[17] = biological target: T17, panel of 370 protein kinases (Homo sapiens, UniProt Q9UIK4); details: 2 h, kinase DAPK2; read-out: % Enzyme Activity (relative to DMSO controls)
T17 construct: purchased Reaction Biology Corporation (assay service)

[18] = biological target: T18, panel of 370 protein kinases (Homo sapiens, UniProt Q96BR1); details: 2 h, kinase SGK3/SGKL; read-out: % Enzyme Activity (relative to DMSO controls)
T18 construct: purchased Reaction Biology Corporation (assay service)

[19] = biological target: T19, panel of 370 protein kinases (Homo sapiens, UniProt P20794); details: 2 h, kinase MAK; read-out: % Enzyme Activity (relative to DMSO controls)
T19 construct: purchased Reaction Biology Corporation (assay service)

[20] = biological target: T20, panel of 370 protein kinases (Homo sapiens, UniProt Q02779); details: 2 h, kinase MLK2/MAP3K10; read-out: % Enzyme Activity (relative to DMSO controls)
T20 construct: purchased Reaction Biology Corporation (assay service)

[21] = biological target: T21, panel of 370 protein kinases (Homo sapiens, UniProt P48730); details: 2 h, kinase CK1d; read-out: % Enzyme Activity (relative to DMSO controls)
T21 construct: purchased Reaction Biology Corporation (assay service)

T2 sequence (Q00526 whole entry): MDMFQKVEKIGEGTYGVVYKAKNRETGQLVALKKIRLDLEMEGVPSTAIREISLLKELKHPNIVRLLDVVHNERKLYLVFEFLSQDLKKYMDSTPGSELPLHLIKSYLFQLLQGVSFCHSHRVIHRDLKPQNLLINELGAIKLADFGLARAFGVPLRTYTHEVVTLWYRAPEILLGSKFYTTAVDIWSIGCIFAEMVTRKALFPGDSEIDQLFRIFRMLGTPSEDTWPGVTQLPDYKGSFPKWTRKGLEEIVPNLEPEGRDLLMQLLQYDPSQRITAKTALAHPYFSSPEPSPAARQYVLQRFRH
T15 sequence (P29597 whole entry): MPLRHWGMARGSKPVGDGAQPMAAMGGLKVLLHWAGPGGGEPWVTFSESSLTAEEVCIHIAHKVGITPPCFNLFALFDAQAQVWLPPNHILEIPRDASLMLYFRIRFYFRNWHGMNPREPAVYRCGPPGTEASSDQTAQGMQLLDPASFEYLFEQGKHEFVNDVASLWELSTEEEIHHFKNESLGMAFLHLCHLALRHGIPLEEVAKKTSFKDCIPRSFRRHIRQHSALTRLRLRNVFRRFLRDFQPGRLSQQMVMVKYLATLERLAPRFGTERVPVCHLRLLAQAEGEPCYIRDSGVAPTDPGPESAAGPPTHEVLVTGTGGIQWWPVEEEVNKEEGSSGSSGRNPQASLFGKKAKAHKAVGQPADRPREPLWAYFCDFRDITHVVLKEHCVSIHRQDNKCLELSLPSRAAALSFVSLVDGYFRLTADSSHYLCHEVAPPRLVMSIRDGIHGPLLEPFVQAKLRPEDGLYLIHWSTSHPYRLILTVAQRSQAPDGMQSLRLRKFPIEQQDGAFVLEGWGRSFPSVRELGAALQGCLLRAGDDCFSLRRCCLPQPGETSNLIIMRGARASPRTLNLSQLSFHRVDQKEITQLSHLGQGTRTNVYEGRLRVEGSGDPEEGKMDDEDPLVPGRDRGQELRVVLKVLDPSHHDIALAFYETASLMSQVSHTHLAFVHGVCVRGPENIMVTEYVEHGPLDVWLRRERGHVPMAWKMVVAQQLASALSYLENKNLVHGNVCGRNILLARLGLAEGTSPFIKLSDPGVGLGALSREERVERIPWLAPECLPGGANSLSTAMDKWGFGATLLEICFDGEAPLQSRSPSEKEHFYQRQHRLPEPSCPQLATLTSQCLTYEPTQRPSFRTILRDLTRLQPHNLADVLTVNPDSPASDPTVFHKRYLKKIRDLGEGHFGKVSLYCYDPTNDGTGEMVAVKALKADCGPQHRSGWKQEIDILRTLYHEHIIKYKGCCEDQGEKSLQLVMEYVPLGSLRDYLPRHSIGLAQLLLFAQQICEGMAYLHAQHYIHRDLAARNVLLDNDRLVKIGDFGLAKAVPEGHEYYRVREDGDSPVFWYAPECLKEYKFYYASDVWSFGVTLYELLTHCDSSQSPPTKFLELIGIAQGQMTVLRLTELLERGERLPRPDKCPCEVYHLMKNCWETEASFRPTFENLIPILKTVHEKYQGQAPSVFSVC
T3 sequence (Q00534 whole entry): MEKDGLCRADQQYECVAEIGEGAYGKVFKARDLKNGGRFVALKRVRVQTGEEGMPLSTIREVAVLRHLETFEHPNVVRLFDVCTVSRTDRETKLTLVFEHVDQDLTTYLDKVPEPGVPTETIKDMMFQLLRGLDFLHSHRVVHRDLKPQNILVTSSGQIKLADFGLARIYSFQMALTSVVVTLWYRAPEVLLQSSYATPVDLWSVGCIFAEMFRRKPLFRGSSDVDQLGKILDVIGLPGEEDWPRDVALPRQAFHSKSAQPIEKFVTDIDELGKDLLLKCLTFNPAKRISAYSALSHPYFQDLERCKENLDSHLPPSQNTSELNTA
T5 sequence (O94806 whole entry): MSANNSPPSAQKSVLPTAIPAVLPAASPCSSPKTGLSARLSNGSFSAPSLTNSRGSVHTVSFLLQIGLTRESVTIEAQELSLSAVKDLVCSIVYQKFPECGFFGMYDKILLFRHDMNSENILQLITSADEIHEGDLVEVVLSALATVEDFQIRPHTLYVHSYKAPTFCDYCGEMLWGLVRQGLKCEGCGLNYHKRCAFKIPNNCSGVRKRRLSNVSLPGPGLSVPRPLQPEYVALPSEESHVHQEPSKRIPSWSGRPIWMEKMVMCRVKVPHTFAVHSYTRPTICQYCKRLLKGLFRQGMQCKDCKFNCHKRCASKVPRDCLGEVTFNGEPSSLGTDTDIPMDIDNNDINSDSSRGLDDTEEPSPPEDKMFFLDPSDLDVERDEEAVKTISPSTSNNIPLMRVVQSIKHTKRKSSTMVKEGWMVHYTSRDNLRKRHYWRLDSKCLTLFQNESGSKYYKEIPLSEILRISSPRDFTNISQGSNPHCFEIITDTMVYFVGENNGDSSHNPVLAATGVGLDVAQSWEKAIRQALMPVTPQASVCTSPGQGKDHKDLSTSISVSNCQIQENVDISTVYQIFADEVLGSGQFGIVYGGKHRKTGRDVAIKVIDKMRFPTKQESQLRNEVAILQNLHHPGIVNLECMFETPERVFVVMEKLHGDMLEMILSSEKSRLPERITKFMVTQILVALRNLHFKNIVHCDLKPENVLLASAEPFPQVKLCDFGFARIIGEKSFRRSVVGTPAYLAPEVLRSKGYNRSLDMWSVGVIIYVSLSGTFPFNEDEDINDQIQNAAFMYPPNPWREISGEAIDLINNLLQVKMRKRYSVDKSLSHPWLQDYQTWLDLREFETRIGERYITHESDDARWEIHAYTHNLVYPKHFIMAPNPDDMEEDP
T10 sequence (O95382 whole entry): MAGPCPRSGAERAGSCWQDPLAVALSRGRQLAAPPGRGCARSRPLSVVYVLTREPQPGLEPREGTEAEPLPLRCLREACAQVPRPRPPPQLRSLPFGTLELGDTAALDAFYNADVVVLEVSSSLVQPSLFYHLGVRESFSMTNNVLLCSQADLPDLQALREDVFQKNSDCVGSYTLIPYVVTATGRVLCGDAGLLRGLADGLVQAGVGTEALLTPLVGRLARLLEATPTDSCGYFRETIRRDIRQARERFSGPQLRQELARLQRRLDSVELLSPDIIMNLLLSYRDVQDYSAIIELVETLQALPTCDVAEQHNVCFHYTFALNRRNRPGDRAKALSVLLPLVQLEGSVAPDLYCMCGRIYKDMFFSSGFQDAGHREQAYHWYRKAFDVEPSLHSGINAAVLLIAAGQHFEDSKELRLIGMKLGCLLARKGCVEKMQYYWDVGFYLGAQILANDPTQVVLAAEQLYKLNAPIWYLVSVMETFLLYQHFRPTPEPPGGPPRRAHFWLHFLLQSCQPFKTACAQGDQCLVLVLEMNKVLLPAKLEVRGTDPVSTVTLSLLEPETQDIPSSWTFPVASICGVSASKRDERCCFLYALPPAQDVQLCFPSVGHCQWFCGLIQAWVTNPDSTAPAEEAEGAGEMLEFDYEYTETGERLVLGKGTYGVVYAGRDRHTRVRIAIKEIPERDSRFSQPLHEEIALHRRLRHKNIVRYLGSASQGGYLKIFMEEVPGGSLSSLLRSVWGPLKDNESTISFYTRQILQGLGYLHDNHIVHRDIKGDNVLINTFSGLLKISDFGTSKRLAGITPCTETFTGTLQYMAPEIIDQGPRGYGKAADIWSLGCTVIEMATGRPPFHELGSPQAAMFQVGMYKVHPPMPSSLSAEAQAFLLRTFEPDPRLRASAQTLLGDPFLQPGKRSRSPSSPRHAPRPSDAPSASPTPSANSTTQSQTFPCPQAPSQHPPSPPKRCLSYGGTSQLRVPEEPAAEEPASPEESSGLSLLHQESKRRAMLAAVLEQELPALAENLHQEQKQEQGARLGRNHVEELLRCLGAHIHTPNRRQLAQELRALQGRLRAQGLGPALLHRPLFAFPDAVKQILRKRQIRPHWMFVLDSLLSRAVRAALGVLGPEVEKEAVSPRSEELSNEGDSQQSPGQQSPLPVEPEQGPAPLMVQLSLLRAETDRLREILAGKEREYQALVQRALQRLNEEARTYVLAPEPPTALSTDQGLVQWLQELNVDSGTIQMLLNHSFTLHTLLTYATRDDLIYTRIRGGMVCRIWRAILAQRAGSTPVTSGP

SMILES: CCN1CCN(C(=O)c2ccc(Nc3ncc(F)c(-c4ccc5nc(N(C)C)sc5c4)n3)nc2)CC1 [YK-2-69]
- remaining activity at 1 µM [1]: 94%
- % Enzyme Activity (relative to DMSO controls) ([2]; kinase CDK3/cyclin E): 106.69% and 103.49%
- % Enzyme Activity (relative to DMSO controls) ([2]; kinase CDK3/cyclin E2): 101.82% and 90.67%
- remaining activity at 1 µM ([3]; kinase CDK6/cyclin D1): 8.21%
- remaining activity at 1 µM ([3]; kinase CDK6/cyclin D3): 71.9%
- remaining activity at 1 µM [4]: 97%
- remaining activity at 1 µM [5]: 75.6%
- remaining activity at 1 µM [6]: 102%
- remaining activity at 1 µM [7]: 55.8%
- remaining activity at 1 µM [8]: 90.9%
- remaining activity at 1 µM [9]: 94.2%
- remaining activity at 1 µM [10]: 111%
- remaining activity at 1 µM [11]: 101%
- remaining activity at 1 µM [12]: 105%
- remaining activity at 1 µM [13]: 88.5%
- remaining activity at 1 µM [14]: 85.7%
- % Enzyme Activity (relative to DMSO controls) [15]: 89.12% and 88.94%
- remaining activity at 1 µM [16]: 103%
- remaining activity at 1 µM [17]: 89.2%
- remaining activity at 1 µM [18]: 95.6%
- remaining activity at 1 µM [19]: 71.7%
- remaining activity at 1 µM [20]: 81.7%
- remaining activity at 1 µM [21]: 104%
